Laboratory results reported in patent US11249100B2, “Modular robotic systems for delivering fluid to microfluidic devices” (Worcester Polytechnic Institute, priority 2018, dated 2022).
“Also recorded” adds a separate entry of the source.

What was measured:
[1] = test system: AWA chemosensory neurons; assay: Automated solvent screen: optogenetically (Chrimson) evoked GCaMP calcium responses in living nematodes; assay type: in vivo, C. elegans; conditions: for effect on peak fluorescent responses to Chrimson-induced activation: <1 min exposure, compared to prior buffer control, 20 young adult animals; for persistence of suppression after returning to buffer fluid: alternating buffer control wells after solvent wells
Procedure: The C. elegans strain NZ1091 was integrated by irradiation and backcrossed at least 10×. Animals were grown and maintained at 20° C. on NGM plates with OP50 E. coli bacteria. At least 12 hrs prior to experimentation, L4 stage C. elegans were picked and transferred to 50 μM All Trans Retinal (ATR) in OP50 E. coli spotted onto an unseeded NGM plate. For the dose response experiment, C. elegans were selected as L4s the day before and tested as young adults the next day.
All solvents were prepared in Eppendorf tubes at 1% and 5% v/v concentrations to 1 mL in paralysis buffer (S. Basal buffer without cholesterol containing the acetylcholine agonist 1 mM (−)-tetramisole hydrochloride) and vortexed to mix for 30 s-1 min. Solvent dilutions were transferred to a 96 deep well plate (700µL/well). Alternating control wells were filled with 100 ng/mL fluorescein in paralysis buffer to visualize alternating solution delivery. Animals were exposed to paralysis buffer flow for ˜1-2 hrs prior to solvent delivery to keep animals stationary during recording. The 96 well plate was loaded with solvent solutions by hand the hour before recording and sealed with adhesive film (Glad® Press-n-Seal).
Methods followed those described previously. About 20-30 animals co-expressing GCaMP and Chrimson in the AWA chemosensory neuron pair were loaded into a modified high-throughput microfluidic imaging device optimized for 4× magnification with only the inlet, back pressure, worm loading, and outlet port(s) punched. Optical configurations were customized using an ASI RAMM frame and commercially available components for low-magnification wide-filed GCaMP excitation (4×/0.28 NA), compatible with Chrimson excitation, and high-resolution (1024×1024) 10 fps image acquisition. In addition to the optical set up described above, a 617 nm Mightex LED was mounted beneath the RAMM stage with an additional cube housing a 590 LP excitation dichroic to pass uniform Chrimson activation across the entire field of view. At each inlet well position, animals were exposed to solution for <1 min total, during which a 30 s delay was programmed to sufficiently fill the tubing after each well transfer for serially delivered solutions. Then, an immediate acquisition of 15 s (10 frames/s, 10 ms blue light pulse, 10 ms delay, 2×2 binning) began with a 617 nm light presence for 5 s (from 2.5 s to 7.5 s). Custom scripts were used for quantifying neuron fluorescence (Neurotracker ImageJ macro) and MATLAB17a for data analysis and visualization.
The robotic system was used to screen 14 different solvents at two concentrations (1% and 5%) for their effects on optogenetically-evoked neural responses. Solvent dilutions were prepared in a 96-well plate alternating with buffer control wells (FIG. 8A). A previously established high-throughput imaging device was used to record calcium signals from individual neurons of 20-25 young adult animals (FIG. 8B). Animals co-expressed the red-shifted channelrhodopsin (Chrimson) and the genetically encoded calcium sensor (GCaMP2.2b) in the AWA chemosensory neurons (FIG. 8C), allowing simultaneous optical stimulation and monitoring of neural responses.

[2] = test system: ASER chemosensory neuron; conditions: ASER::GCaMP; downshift from base 40 mM NaCl; triplicate pulses
Procedure: Salt solutions (0-40 mM) were prepared by diluting S. Basal buffer (100 mM NaCl) with an iso-osmotic buffer of 186 mM glycerol.
Either the input stimulus (in, fluorescein for visualization) or buffer can bathe the animals depending on which control channel flows (c1 for input, c2 for buffer). […] Triplicate pulses (10 s) are delivered once per minute at a given concentration, followed by an increase in concentration with a delay of ˜45 s.
Animals expressing GCaMP in the ASER chemosensory neuron, which responds to salt downshifts, were stimulated with triplicate repeat pulses of NaCl, decreasing from a base 40 mM NaCl to a variable level from 40 mM (0 change) to 0 mM (−40 mM change).

[3] = test system: AWA chemosensory neurons; assay: Automated diacetyl odor dose response, GCaMP calcium imaging; assay type: in vivo, C. elegans
[4] = 1% v/v solvent in paralysis buffer
[5] = 5% v/v solvent in paralysis buffer

Row | SMILES | effect on peak fluorescent responses to Chrimson-induced activation [1, 4] | effect on peak fluorescent responses to Chrimson-induced activation [1, 5] | persistence of suppression after returning to buffer fluid [1] | further results
1 | CN(C)C=O [DMF] | weaker suppressive effects |  |  | 
2 | C[S+](C)[O-] [DMSO] | variable and weakly suppressed responses; also recorded: weaker suppressive effects |  |  | 
3 | [Cl-].[Na+] [NaCl] |  |  |  | NaCl shift giving a minimal but robust response in ASE [2]: shift from 40 mM to 35 mM
4 | CC(C)=O [acetone] |  | weaker suppressive effects |  | 
5 | CC#N [acetonitrile] |  | significantly suppressed; also recorded: most significant suppressive effects | transient | 
6 | CC(=O)C(C)=O [diacetyl] |  |  |  | diacetyl concentration giving a minimal but robust odor response in AWA ([3]; AWA::GCaMP young adults, triplicate odor pulses once per minute): 0.1 µM; odor-evoked neural responses versus concentration ([3]; AWA::GCaMP, diacetyl from 0.1 μM to 1 mM): strengthened with increasing odor concentration
7 | CCO [ethanol] |  | variable and weakly suppressed responses; also recorded: most significant suppressive effects |  | 
8 | CC(C)O [isopropanol] | significantly suppressed | significantly suppressed; also recorded: most significant suppressive effects | transient | effect on optogenetically-evoked neural responses ([1]; solvents at 1% and 5%, concentration not separated): suppression of optogenetic stimulation
9 | CO [methanol] | significantly suppressed | significantly suppressed; also recorded: most significant suppressive effects | transient | 
